Laboratory results reported in ChEMBL document CHEMBL5113477, “Membrane acting Povarov-Doebner derived compounds potently disperse preformed multidrug resistant Gram-positive bacterial biofilms” (Eur J Med Chem, 2022).
≈ marks a conversion by molar mass, not a printed value. Calls of active or inactive are those of the source. The rule behind the calls is not given here.

Key:
Staphylococcus aureus [1] = assay: Inhibition of RNA synthesis in Staphylococcus aureus ATCC 25923 at 0.25 to 8 ug/ml by [5-3H]-uridine incorporation assay; format: functional, organism-based; details: dose 0.25-8 µg/ml
Cell membrane [2] = assay: Induction of membrane permeabilization in Staphylococcus aureus ATCC 25923 measured every 3 mins for 180 mins by sytox green dye based flow cytometry analysis; format: subcellular; details: dose 0.5-4 µg/ml, DDE = dose-dependent effect
Staphylococcus aureus [3] = assay: (§1) Synergistic antibiofilm activity against methicillin-resistant Staphylococcus aureus USA 300 in TSB broth assessed as dispersal of glucose-induced biofilm with distribution of ruptured bacteria components and debris at 4 ug/ml preincubated with glucose for 48 hrs followed by compound addition and further incubated for 24 hrs in presence of Bithionol by SEM analysis; format: functional, organism-based; details: dose 4.0 µg/ml
Enterococcus faecalis [4] = assay: (§2) Synergistic antibiofilm activity against vancomycin-resistant Enterococcus faecalis ATCC 51575 in TSB broth assessed as dispersal of glucose-induced biofilm by measuring Nitroxoline MBEC preincubated with glucose for 48 hrs followed by compound addition and measured after 24 hrs by crystal violet staining based checkerboard assay; format: functional
Staphylococcus aureus [5] = assay: as §1, with “biofilm” for “biofilm with distribution of ruptured bacteria components and debris”, “crystal violet staining based assay” for “SEM analysis”; format: functional; details: dose 4 µg/ml
Enterococcus faecium [6] = assay: (§3) Synergistic antibiofilm activity against vancomycin-resistant Enterococcus faecium ATCC 700221 in TSB broth assessed as dispersal of glucose-induced biofilm preincubated with glucose for 48 hrs followed by compound addition and further incubated for 24 hrs in presence of Nitroxoline by crystal violet staining based checkerboard assay; format: functional
Staphylococcus aureus [7] = assay: Antibacterial activity against methicillin-resistant Staphylococcus aureus USA 300 (ARLG 1663) assessed as reduction in visible bacterial growth incubated for 18 to 20 hrs by CLSI based broth microdilution analysis; format: functional; details: time 18-20 hrs
Enterococcus faecalis [8] = assay: Antibacterial activity against Enterococcus faecalis ATCC 29212 assessed as reduction in visible bacterial growth incubated for 18 to 20 hrs by CLSI based broth microdilution analysis; format: functional; details: time 18-20 hrs
Enterococcus faecium [9] = assay: as §2, with “faecium” for “faecalis”, “700221” for “51575”; format: functional
Staphylococcus aureus [10] = assay: Bactericidal activity against exponential phase of methicillin-resistant Staphylococcus aureus USA 300 at 1 to 4 times MIC incubated for 2 to 8 hrs by time kill assay; format: functional, organism-based; details: time 2-8 hrs
Staphylococcus aureus [11] = assay: (§4) Synergistic antibiofilm activity against methicillin-resistant Staphylococcus aureus USA 300 in TSB broth assessed as dispersal of glucose-induced biofilm at 1 ug/ml preincubated with glucose for 48 hrs followed by compound addition and further incubated for 24 hrs in presence of Nitroxoline by crystal violet staining based assay; format: functional; details: dose 1 µg/ml
Staphylococcus aureus [12] = assay: as §4, with “1 ug/ml Bithionol and AgNO3” for “Nitroxoline”, “analysis” for “assay”; format: functional; details: dose 1 µg/ml
Staphylococcus aureus [13] = assay: Antibacterial activity against methicillin-resistant Staphylococcus aureus USA 300 (ARLG 1649) assessed as reduction in visible bacterial growth incubated for 18 to 20 hrs by CLSI based broth microdilution analysis; format: functional; details: time 18-20 hrs
Staphylococcus aureus [14] = assay: as §4, with “by measuring fractional inhibitory concentration index” for “at 1 ug/ml”, “based checkerboard” for “based”; format: functional
Enterococcus faecium [15] = assay: Inhibition of biofilm formation in vancomycin-resistant Enterococcus faecium ATCC 700221 in TSB broth at 0.0078 to 4 ug/ml incubated for 48 hrs in presence of glucose by crystal violet staining based analysis; format: functional, organism-based; details: dose 0.0078-4 µg/ml
Staphylococcus aureus [16] = assay: Antibacterial activity against methicillin-resistant Staphylococcus aureus USA 300 (ARLG 1644) assessed as reduction in visible bacterial growth incubated for 18 to 20 hrs by CLSI based broth microdilution analysis; format: functional; details: time 18-20 hrs
Staphylococcus aureus [17] = assay: Antibacterial activity against methicillin-resistant Staphylococcus aureus USA 300 assessed as reduction in visible bacterial growth incubated for 18 to 20 hrs by CLSI based broth microdilution analysis; format: functional; details: time 18-20 hrs
Staphylococcus aureus [18] = assay: Bactericidal activity against persister methicillin-resistant Staphylococcus aureus USA 300 at 1 times MIC incubated for 2 to 8 hrs by time kill assay; format: functional, organism-based; details: time 2-8 hrs
Staphylococcus aureus [19] = assay: Bactericidal activity against persister methicillin-resistant Staphylococcus aureus USA 300 at 1 times MIC incubated for 4 hrs by time kill assay; format: functional
Staphylococcus aureus [20] = assay: Antibacterial activity against methicillin-resistant Staphylococcus aureus USA 300 (ARLG 1568) assessed as reduction in visible bacterial growth incubated for 18 to 20 hrs by CLSI based broth microdilution analysis; format: functional; details: time 18-20 hrs
Staphylococcus aureus [21] = assay: as §4, with “biofilm” for “biofilm at 1 ug/ml”, “Bithionol” for “Nitroxoline”, “based checkerboard” for “based”; format: functional
Staphylococcus aureus [22] = assay: as §4, with “by measuring fractional inhibitory concentration index” for “at 1 ug/ml”, “Bithionol” for “Nitroxoline”, “based checkerboard” for “based”; format: functional
Staphylococcus aureus [23] = assay: Inhibition of cell wall synthesis in Staphylococcus aureus ATCC 25923 at 0.25 to 8 ug/ml by [glucosamine-6-3H]-N-acetyl-D-glucosamine incorporation assay; format: functional, organism-based; details: dose 0.25-8 µg/ml
Staphylococcus aureus [24] = assay: Antibiofilm activity against methicillin-resistant Staphylococcus aureus USA 300 in TSB broth assessed as dispersal of glucose-induced biofilm preincubated with glucose for 48 hrs followed by compound addition and measured after 24 hrs by crystal violet staining based analysis; format: functional
Staphylococcus aureus [25] = assay: Antibacterial activity against Staphylococcus aureus ATCC 25923 assessed as reduction in visible bacterial growth incubated for 18 to 20 hrs by CLSI based broth microdilution analysis; format: functional; details: time 18-20 hrs
Enterococcus faecium [26] = assay: as §3, with “glucose-induced biofilm by measuring fractional inhibitory concentration index preincubated with” for “glucose-induced biofilm preincubated with”; format: functional
Staphylococcus aureus [27] = assay: Bactericidal activity against persister methicillin-resistant Staphylococcus aureus ATCC 33592 at 1 times MIC incubated for 8 hrs by time kill assay; format: functional
Cell membrane [28] = assay: Induction of membrane depolarization in Staphylococcus aureus ATCC 25923 at 2 ug/ml incubated for 1 hr by DiOC23 dye based flow cytometry analysis; format: subcellular; details: dose 2.0 µg/ml
Staphylococcus aureus [29] = assay: Inhibition of biofilm formation in methicillin-resistant Staphylococcus aureus USA 300 in TSB broth at 0.0078 to 4 ug/ml incubated for 48 hrs in presence of glucose by crystal violet staining based analysis; format: functional, organism-based; details: dose 0.0078-4 µg/ml
Enterococcus faecalis [30] = assay: as §3, with “faecalis” for “faecium”, “51575” for “700221”; format: functional
Staphylococcus aureus [31] = assay: Inhibition of protein synthesis in Staphylococcus aureus ATCC 25923 at 0.25 to 8 ug/ml by [3H]-I-leucine incorporation assay; format: functional; details: dose 0.25-8 µg/ml
Erythrocyte = assay: Hemolytic activity in sheep RBC at 10 times MIC incubated for 30 mins by spectrophotometry; format: toxicity, cell-based, Ovis aries; details: 0.5 h
Listeria monocytogenes = assay: Antibacterial activity against Listeria monocytogenes ATCC 19115 assessed as reduction in visible bacterial growth incubated for 18 to 20 hrs by CLSI based broth microdilution analysis; format: functional; details: time 18-20 hrs
Enterococcus faecium [32] = assay: Synergistic antibiofilm activity against vancomycin-resistant Enterococcus faecium ATCC 700221 in TSB broth assessed as dispersal of glucose-induced biofilm at 2 ug/ml preincubated with glucose for 48 hrs followed by compound addition and further incubated for 24 hrs in presence of 0.5 ug/ml Bithionol and AgNO3 by crystal violet staining based analysis; format: functional; details: dose 2 µg/ml

Compound: Oc1ccc([C@@H]2Nc3ccc(S(F)(F)(F)(F)F)cc3[C@H]3[C@@H]4CC[C@@H](C4)[C@H]32)cc1
- inhibition (Staphylococcus aureus [1]): Active
- Activity (Cell membrane [2]): Dde
- Activity (Staphylococcus aureus [3]): Active
- MBEC (Enterococcus faecalis [4]): 2 µg/mL
- Activity (Staphylococcus aureus [5]): >80%
- MBEC (Enterococcus faecium [6]): 4 µg/mL
- MBC (Staphylococcus aureus [7]): 2 µg/mL (≈ 4.79 µM)
- MIC (Staphylococcus aureus [7]): 0.5 µg/mL (≈ 1.2 µM)
- MBC (Enterococcus faecalis [8]): 2 µg/mL (≈ 4.79 µM)
- MIC (Enterococcus faecalis [8]): 2 µg/mL (≈ 4.79 µM)
- MBEC (Enterococcus faecium [9]): 0.5 µg/mL
- Activity (Staphylococcus aureus [10]): Active
- Activity (Staphylococcus aureus [11]): >80%
- Activity (Staphylococcus aureus [12]): >80%
- MBC (Staphylococcus aureus [13]): 2 µg/mL (≈ 4.79 µM)
- MIC (Staphylococcus aureus [13]): 1 µg/mL (≈ 2.4 µM)
- fractional inhibitory concentration index (FICI) (Staphylococcus aureus [14]): 0.28
- inhibition (Enterococcus faecium [15]): Active
- MBC (Staphylococcus aureus [16]): 2 µg/mL (≈ 4.79 µM)
- MIC (Staphylococcus aureus [16]): 1 µg/mL (≈ 2.4 µM)
- MBC (Staphylococcus aureus [17]): 2 µg/mL (≈ 4.79 µM)
- MIC (Staphylococcus aureus [17]): 1 µg/mL (≈ 2.4 µM)
- Activity (Staphylococcus aureus [18]): Active
- Activity (Staphylococcus aureus [19]): 100%
- MBC (Staphylococcus aureus [20]): 2 µg/mL (≈ 4.79 µM)
- MIC (Staphylococcus aureus [20]): 2 µg/mL (≈ 4.79 µM)
- MBEC (Staphylococcus aureus [21]): 4 µg/mL
- fractional inhibitory concentration index (FICI) (Staphylococcus aureus [22]): 0.25
- inhibition (Staphylococcus aureus [23]): Active
- MBEC (Staphylococcus aureus [24]): 32 µg/mL
- MBC (Staphylococcus aureus [25]): 2 µg/mL (≈ 4.79 µM)
- MIC (Staphylococcus aureus [25]): 2 µg/mL (≈ 4.79 µM)
- fractional inhibitory concentration index (FICI) (Enterococcus faecium [26]): 0.16
- Activity (Staphylococcus aureus [27]): 100%
- Activity (Cell membrane [28]): Active
- inhibition (Staphylococcus aureus [29]): Active
- MBEC (Enterococcus faecalis [30]): 4 µg/mL
- inhibition (Staphylococcus aureus [31]): Active
- Activity (Erythrocyte): Non-Toxic
- MIC (Listeria monocytogenes): 1 µg/mL (≈ 2.4 µM)
- Activity (Enterococcus faecium [32]): >70%
